Experimental data reported in patent US20200308616A1, “PROCESS FOR PRODUCING HIGH PURITY STEVIOL GLYCOSIDES” (PureCircle Sdn Bhd, priority 2015, published 2020).
Where two headings read alike, the source gives them in different places.

Key:
gut microbiome = conditions: cited from earlier work
microbial strains = assay: Indirect assay: growth with RebA as the only carbon source and RebA degradation by the soluble fraction of the cell extract; type: cell-based; conditions: defined mineral medium, 10 g/L RebA as only carbon source, 28° C., 72 h; 19 microbial strains
Method: Microbial strains were assayed for their ability to assimilate RebA from the culture medium by growing the strains in a defined mineral medium with RebA as the only carbon source.
This medium contained (per liter): 10 g RebA, 5 g (NH4)2SO4, 3 g KH2PO4, 0.5 g MgSO4×7H2O, 15 mg EDTA, 4.5 mg ZnSO4×7H2O, 0.3 mg CoCl2×6H2O, 1 mg MnCl2×4H2O, 0.3 mg CuSO4×5H2O, 4.5 mg CaCl2×2H2O, 3 mg FeSO4×7H2O, 0.4 mg NaMoO4×2H2O, 1 mg H3BO3, 0.1 mg KI, 0.05 mg biotin, 1 mg calcium pantothenate, 25 mg inositol, 1 mg thiamine HCl, 1 mg pyridoxine HCl, 0.2 mg para-aminobenzoic acid. A volume of 1 mL culture medium was inoculated with 10 μl of an overnight culture grown.
All cultivations were performed in 96 square well plates on a laboratory shaker with 300 rpm and 5.1 cm shaking diameter at 28° C. for 72 h. Growth was monitored by mixing 50 μL or culture volume with 50 μL ethanol in a 96 well plate and subsequently measuring the optical density at 600 nm (OD600) in a spectrophotometer (Molecular Devices). […]
Then, 70 μL of a 2 g/L RebA solution was added to the soluble fraction before incubation at 72 h at 28° C. RebA was detected by LC-MS set to single ion monitoring (SIM) mode, negative mode, m/z=965.60.
The difference in RebA concentration between the start and the end of the incubation was calculated for each soluble fraction. […]

[1] = tested on: Kluyveromyces marxianus strain; assay: Direct assay: quantification of intracellular RebA by LC-MS; type: cell-based
Method: The selected microbial strain was cultivated in a defined mineral medium with RebA as the only carbon source. This medium contained (per liter): 9 g RebA, 5 g (NH4)2SO4, 3 g KH2PO4, 0.5 g MgSO4×7H2O, 15 mg EDTA, 4.5 mg ZnSO4×7H2O, 0.3 mg CoCl2×6H2O, 1 mg MnCl2×4H2O, 0.3 mg CuSO4×5H2O, 4.5 mg CaCl2×2H2O, 3 mg FeSO4×7H2O, 0.4 mg NaMoO4×2H2O, 1 mg H3BO3, 0.1 mg KI, 0.05 mg biotin, 1 mg calcium pantothenate, 25 mg inositol, 1 mg thiamine HCl, 1 mg pyridoxine HCl, 0.2 mg para-aminobenzoic acid. A volume of 20 mL culture medium was inoculated with a single colony. All cultivations were performed in 25 mL culture medium in a 300 mL non-baffled shake flask on a laboratory shaker with 250 rpm and 2.5 cm shaking diameter at 28° C. for 72 h. The complete culture was transferred to a beaker containing 125 mL of a solution containing 45 ppm 4-Nitrophenyl β-D-glucopyranoside in 60% methanol in water that was pre-cooled to −40° C. The mixture was then transferred to three 50 mL centrifugation tubes that were pre-cooled on dry ice and centrifuged below 0° C. at 4248 g for 10 min. Subsequently, an aliquot of the supernatant (quench) was stored at −80° C. and the rest of the supernatant was discarded, while the pellet was kept on dry ice. Then 5 mL 60% methanol in water pre-cooled on dry ice was used to re-suspend the 3 pellets. The re-suspended pellets were transferred to a single 15 mL centrifugation tube precooled on dry ice and centrifuged below 0° C. at 4248 g for 10 min. Then the supernatant was discarded and the pellet was re-suspended in fresh 5 mL 60% methanol in water pre-cooled on dry ice and the suspension was centrifuged below 0° C. at 4248 g for 10 min. Then the supernatant was discarded and the pellet was re-suspended again in fresh 5 mL 60% methanol in water pre-cooled on dry ice and the suspension was centrifuged below 0° C. at 4248 g for 10 min. […] The concentration of RebA in quench, wash, and cell extract was quantified by LC-MS (FIG. 2), in which the error bars indicate the standard error of mean from 2 parallel experiments.

## C=C1C[C@@]23CC[C@H]4[C@@](C)(CCC[C@@]4(C)C(=O)O)[C@@H]2CC[C@]1(O)C3 [steviol]
Gut microbiome; Gardana et al., 2003
  degradation by the gut microbiome: not metabolized further

## C=C1C[C@@]23CC[C@H]4[C@@](C)(CCC[C@@]4(C)C(=O)O[C@@H]4O[C@H](CO)[C@@H](O)[C@H](O)[C@H]4O)[C@@H]2CC[C@]1(O[C@@H]1O[C@H](CO)[C@@H](O)[C@H](O[C@@H]2O[C@H](CO)[C@@H](O)[C@H](O)[C@H]2O)[C@H]1O[C@@H]1O[C@H](CO)[C@@H](O)[C@H](O)[C@H]1O)C3 [RebA, Rebaudioside A]
Gut microbiome
  degradation by the gut microbiome: glucose residues are cleaved off
Microbial strains
  assimilation of RebA from the culture medium: found to assimilate RebA
[1]; 9 g/L RebA as only carbon source, 72 h, LC-MS, FIG. 2, 2 parallel experiments
  concentration of RebA in the cell extract versus quench and wash solutions: exceeds that in the quench and wash solutions
[1]; LC-MS, FIG. 2
  concentration of RebA in the wash solution versus quench solution: higher than in the quench solution
[1]; conclusion from cell extract versus quench and wash concentrations
  intracellular accumulation of RebA: accumulated intracellularly
